Experimental data published in patent publication US20020137929A1, “1 - (3-heterocyclylphenyl) isothiourea, -isourea, -guanidine and -amidine herbicidal agents” (Intellectual Property Department, BASF Aktiengesellschaft, priority 1998, published 2002).

How the values were obtained:
ABUTH (Velvetleaf) = experiment: Postemergence herbicidal evaluation; type: in vivo, Abutilon theophrasti; settings: postemergence
Outline: (§1)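 Each compound, dispersed in an acetone/water mix (50/50) carrying 0.5% TWEEN 20, is nozzle-sprayed at 40 psi on approximately two-week-old seedlings at about 0.0156–0.500 kg/ha. Plants are assessed 4–5 weeks afterward on a 0–9 scale relative to control; duplicate tests are averaged.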

AMBEL (Ragweed, Common) = experiment: Postemergence herbicidal evaluation; type: in vivo, Ambrosia artemisifolia; settings: postemergence
Outline: as §1

[1] = tested on: IPOHE (Morningglory, Ivyleaf); experiment: Postemergence herbicidal evaluation; type: in vivo, Ipomoea hederacea; settings: postemergence
Outline: as §1

ECHCG (Barnyardgrass) [2] = experiment: Postemergence herbicidal evaluation; type: in vivo, Echinochloa crus-galli; settings: postemergence
Outline: as §1

SETVI (Foxtail, Green) = experiment: Postemergence herbicidal evaluation; type: in vivo, Setaria viridis; settings: postemergence
Outline: as §1

[3] = tested on: GLXMAW (Soybean, Williams); experiment: Postemergence herbicidal evaluation; type: in vivo, Glycine max, (L.) Merr. cv Williams; settings: postemergence
Outline: as §1

[4] = tested on: TRZAWR (Wheat, Winter, cv Riband); experiment: Postemergence herbicidal evaluation; type: in vivo, Triticum aestivum; settings: postemergence
Outline: as §1

CASOB (Sicklepod) = experiment: Preemergence herbicidal evaluation; type: in vivo, Cassia obtusifolia; settings: rated 4-5 weeks after treatment
Source text: (§2) Results of herbicide evaluation are expressed on a rating scale (0-9). The scale is based upon a visual observation of plant stand, vigor, malformation, size, chlorosis and overall plant appearance as compared with a control.
(§3) The preemergence herbicidal activity of the test compounds of the present invention is exemplified by the following tests in which the seeds of a variety of monocotyledonous and dicotyledonous plants are separately mixed with potting soil and planted on top of approximately one inch of soil in separate pint cups. After planting, the cups are sprayed with the selected aqueous acetone solution containing test compound in sufficient quantity to provide the equivalent of about 0.0156 to 0.500 kg per hectare of test compound per cup. The treated cups are then placed on greenhouse benches, watered and cared for in accordance with conventional greenhouse procedures. From four to five weeks after treatment, the tests are terminated and each cup is examined and rated according to the rating system provided in Example 37.
(§4) The compounds evaluated are reported by compound number given in Example 37.

[5] = tested on: CHEAL (Lambsquarters, Common); experiment: Preemergence herbicidal evaluation; type: in vivo, Chenopodium album; settings: rated 4-5 weeks after treatment
Source text: as §2, §3, §4

GALAP (Galium) = experiment: Preemergence herbicidal evaluation; type: in vivo, Galium aparine; settings: rated 4-5 weeks after treatment
Outline: (§5)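 Seeds were mixed with potting soil and planted on about one inch of soil, then sprayed with test compound in aqueous acetone at about 0.0156 to 0.500 kg per hectare. Plants grew under standard greenhouse care and were visually rated 0-9 against untreated controls 4-5 weeks post-treatment.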

[6] = tested on: IPOHE (Morningglory, Ivyleaf); experiment: Preemergence herbicidal evaluation; type: in vivo, Ipomoea hederacea; settings: rated 4-5 weeks after treatment
Outline: as §5

ECHCG (Barnyardgrass) [7] = experiment: Preemergence herbicidal evaluation; type: in vivo, Echinochloa crus-galli; settings: rated 4-5 weeks after treatment
Source text: as §2, §3, §4

ZEAMX (Corn, Field) = experiment: Preemergence herbicidal evaluation; type: in vivo, Zea mays; settings: rated 4-5 weeks after treatment
Source text: as §2, §3, §4

CCOC(=O)CN1C(=O)C(C(=O)OC)SC1=Nc1cc(-n2c(=O)cc(C(F)(F)F)n(C)c2=O)c(F)cc1Cl (centres unmarked) [Compound 128, 5-Carboxy-2-{{2-chloro-5-[3,6-dihydro-3-methyl-2,6-dioxo-4-(trifluoromethyl)-1(2H)-pyrimidinyl]-4-fluorophenyl}imino}-4-oxo-3-thiazolidineacetic acid, 3-ethyl methyl ester] was tested, and the “Herbicidal rating ABUTH” value (ABUTH (Velvetleaf); rate 0.0156 kg/ha) was 6.0, the “Herbicidal rating ABUTH” value (ABUTH (Velvetleaf); rate 0.0313 kg/ha) was 9.0 and the “Herbicidal rating ABUTH” value (ABUTH (Velvetleaf); rate 0.0625 kg/ha) was 9.0. The “Herbicidal rating AMBEL” value (AMBEL (Ragweed, Common); rate 0.0156 kg/ha) was 7.0, the “Herbicidal rating AMBEL” value (AMBEL (Ragweed, Common); rate 0.0313 kg/ha) was 9.0 and the “Herbicidal rating AMBEL” value (AMBEL (Ragweed, Common); rate 0.0625 kg/ha) was 9.0. For the same compound, the “Herbicidal rating IPOHE” value ([1]; rate 0.0156 kg/ha) was 9.0, the “Herbicidal rating IPOHE” value ([1]; rate 0.0313 kg/ha) was 9.0 and the “Herbicidal rating IPOHE” value ([1]; rate 0.0625 kg/ha) was 9.0. The “Herbicidal rating ECHCG” value (ECHCG (Barnyardgrass) [2]; rate 0.0156 kg/ha) was 1.0, the “Herbicidal rating ECHCG” value (ECHCG (Barnyardgrass) [2]; rate 0.0313 kg/ha) was 2.0 and the “Herbicidal rating ECHCG” value (ECHCG (Barnyardgrass) [2]; rate 0.0625 kg/ha) was 1.0. For the same compound, the “Herbicidal rating SETVI” value (SETVI (Foxtail, Green); rate 0.0156 kg/ha) was 1.0, the “Herbicidal rating SETVI” value (SETVI (Foxtail, Green); rate 0.0313 kg/ha) was 1.0 and the “Herbicidal rating SETVI” value (SETVI (Foxtail, Green); rate 0.0625 kg/ha) was 4.0. The “Herbicidal rating GLXMAW” value ([3]; rate 0.0156 kg/ha) was 4.5, the “Herbicidal rating GLXMAW” value ([3]; rate 0.0313 kg/ha) was 4.5 and the “Herbicidal rating GLXMAW” value ([3]; rate 0.0625 kg/ha) was 6.0. For the same compound, the “Herbicidal rating TRZAWR” value ([4]; rate 0.0156 kg/ha) was 2.0, the “Herbicidal rating TRZAWR” value ([4]; rate 0.0313 kg/ha) was 3.0 and the “Herbicidal rating TRZAWR” value ([4]; rate 0.0625 kg/ha) was 3.5. The “Preemergence herbicidal rating CASOB” value (CASOB (Sicklepod); rate 0.0156 kg/ha) was 0.0, the “Preemergence herbicidal rating CASOB” value (CASOB (Sicklepod); rate 0.0313 kg/ha) was 1.0 and the “Preemergence herbicidal rating CASOB” value (CASOB (Sicklepod); rate 0.0625 kg/ha) was 1.0. The “Preemergence herbicidal rating CASOB” value (CASOB (Sicklepod); rate 0.2500 kg/ha) was 0.0, the “Preemergence herbicidal rating CHEAL” value ([5]; rate 0.0156 kg/ha) was 9.0 and the “Preemergence herbicidal rating CHEAL” value ([5]; rate 0.0313 kg/ha) was 7.0. For the same compound, the “Preemergence herbicidal rating CHEAL” value ([5]; rate 0.0625 kg/ha) was 9.0, the “Preemergence herbicidal rating CHEAL” value ([5]; rate 0.1250 kg/ha) was 9.0 and the “Preemergence herbicidal rating CHEAL” value ([5]; rate 0.2500 kg/ha) was 9.0. For the same compound, the “Preemergence herbicidal rating GALAP” value (GALAP (Galium); rate 0.0156 kg/ha) was 0.0, the “Preemergence herbicidal rating GALAP” value (GALAP (Galium); rate 0.0313 kg/ha) was 0.0 and the “Preemergence herbicidal rating GALAP” value (GALAP (Galium); rate 0.0625 kg/ha) was 0.0. The “Preemergence herbicidal rating GALAP” value (GALAP (Galium); rate 0.1250 kg/ha) was 1.0, the “Preemergence herbicidal rating GALAP” value (GALAP (Galium); rate 0.2500 kg/ha) was 1.0 and the “Preemergence herbicidal rating IPOHE” value ([6]; rate 0.0156 kg/ha) was 0.0. For the same compound, the “Preemergence herbicidal rating IPOHE” value ([6]; rate 0.0313 kg/ha) was 0.0, the “Preemergence herbicidal rating IPOHE” value ([6]; rate 0.0625 kg/ha) was 4.0 and the “Preemergence herbicidal rating IPOHE” value ([6]; rate 0.1250 kg/ha) was 9.0. The “Preemergence herbicidal rating IPOHE” value ([6]; rate 0.2500 kg/ha) was 7.0, the “Preemergence herbicidal rating ECHCG” value (ECHCG (Barnyardgrass) [7]; rate 0.0156 kg/ha) was 0.0 and the “Preemergence herbicidal rating ECHCG” value (ECHCG (Barnyardgrass) [7]; rate 0.0313 kg/ha) was 0.0. The “Preemergence herbicidal rating ECHCG” value (ECHCG (Barnyardgrass) [7]; rate 0.0625 kg/ha) was 0.0, the “Preemergence herbicidal rating ECHCG” value (ECHCG (Barnyardgrass) [7]; rate 0.1250 kg/ha) was 0.0 and the “Preemergence herbicidal rating ECHCG” value (ECHCG (Barnyardgrass) [7]; rate 0.2500 kg/ha) was 2.0. The “Preemergence herbicidal rating ZEAMX” value (ZEAMX (Corn, Field); rate 0.0156 kg/ha) was 0.0, the “Preemergence herbicidal rating ZEAMX” value (ZEAMX (Corn, Field); rate 0.0313 kg/ha) was 0.0 and the “Preemergence herbicidal rating ZEAMX” value (ZEAMX (Corn, Field); rate 0.0625 kg/ha) was 0.0. For the same compound, the “Preemergence herbicidal rating ZEAMX” value (ZEAMX (Corn, Field); rate 0.1250 kg/ha) was 0.0 and the “Preemergence herbicidal rating ZEAMX” value (ZEAMX (Corn, Field); rate 0.2500 kg/ha) was 0.0.
